As a reminder, the IC50 is the concentration at which inhibition is half-maximal.

In US20100298285A1, “Biclycloheteroaryl Compounds as P2x7 Modulators and Uses Thereof” (priority 2006, published 2010) one finds inhibition and IC50 data, which are given here for 52 molecules.

The subject of the first assay is IL-1β release, THP-1 cells. Put plainly: IL-1β release assay in differentiated THP-1 cells stimulated with BzATP (Example 9). Particulars: Homo sapiens; 0.3 μM compound ("+" symbols); differentiated THP-1 cells, 250 uM BzATP; read-out: IL-1β% Inhib. @ 0.3 or 0.1 μM. It is filed as cell-based. As to the method:
THP-1 cells (ATCC Cat # 285-IF-100) are plated in 96 well plates at a concentration of 200,000 cells per well and allowed to differentiate in RPMI-1640 media (ATCC Cat # 30-2001) containing 10% FBS, 100 IU/mL penicillin, 100 ug/mL streptomycin, 100 ng/mL LPS and 100 ng/mL IFN-γ for 16 hours. Following differentiation, the cells are treated for an additional 2 hours in RPMI-1640 media containing 100 IU/mL penicillin, 100 ug/mL streptomycin and fresh LPS at 100 ng/mL. The cells are then pretreated for 30 minutes with the compound of interest at the appropriate concentration in RPMI media containing 100 IU/mL penicillin, 100 ug/mL streptomycin. Following the pretreatment 2′,3′-O-(4-benzoylbenzoyl)-adenosine 5′-triphosphate (Sigma Aldrich Cat # B6396) is added to a final concentration of 250 uM and the cells are incubated for an additional 45 minutes. 30 uL of cell supernatant is then collected and IL-1β levels determined via ELISA (R&D systems Cat. # HSLB50) according to manufacturer's recommendations using the Tecan Safire plate reader. Background adjusted IL-1β levels of drug treated and non-treated cells are used to calculate the percent inhibition.
The following compounds have been or can be prepared according to the synthetic methods described above. For the purpose of Table 1 below, activity of each compound, which can be determined using the IL-1β assay method described in Example 9, is expressed as follows: […]
The compounds set forth in Table 1 were tested for activity in a cellular model as described herein. Specifically, cells were pretreated with differing amounts of the compound under test and released IL-1β determined as in Example 9, above. Measurements were made and IC50 values, presented in Table 2, below, were determined by fitting the data to a four parameter logistic equation using GraphPad Prism software (GraphPad Software, Inc). The equation may be expressed by the following formula:
Y=Bottom+(Top−Bottom)/(1+10̂((Log EC50−X)*HillSlope))
Where X is the logarithm of concentration, Y is the response and Y starts at Bottom and goes to Top with a sigmoid shape.
In the case of `CN(C)c1ccc(C(=O)N2CCc3c(ccc(Cl)c3NC(=O)Cc3ccc(C(F)(F)F)c(F)c3)C2)cc1` [Compound 3096], the inhibition at 0.3 µM was in the range of 26 to 50%. As to `O=C(Cc1ccc(C(F)(F)F)c(F)c1)Nc1c(Cl)ccc2c1CCN(C(=O)COCc1ccccc1)C2` [Compound 3097], the inhibition at 0.3 µM is 0 to 25%.

Consider `N#Cc1ccc(C(=O)N2CCc3c(ccc(Cl)c3NC(=O)Cc3ccc(C(F)(F)F)c(F)c3)C2)cc1` [Compound 3098], for which the inhibition at 0.3 µM lay in the range of 0 to 25%. As for `O=C(Cc1ccc(C(F)(F)F)c(F)c1)Nc1c(Cl)ccc2c1CCN(C(=O)C1CC1c1ccccc1)C2` (centres unmarked) [Compound 3099], the inhibition at 0.3 µM lay within 0 to 25%. With `O=C(Cc1ccc(C(F)(F)F)c(F)c1)Nc1c(Cl)ccc2c1CCN(C(=O)c1ccc(Cl)cc1Cl)C2` [Compound 3100], the inhibition at 0.3 µM lay within 0 to 25%.

On to `O=C(Cc1ccc(C(F)(F)F)c(F)c1)Nc1c(Cl)ccc2c1CCN(C(=O)C1CCC1)C2` [Compound 3101], for which the inhibition at 0.3 µM lay in the range of 0 to 25%. Still for that read-out and setting: the result for `O=C(Cc1ccc(C(F)(F)F)c(F)c1)Nc1c(Cl)ccc2c1CCN(C(=O)C1CC1)C2` [Compound 3102] reads 0 to 25%. The same measure, in the same setting: the result for `O=C(Cc1ccc(C(F)(F)F)c(F)c1)Nc1c(Cl)ccc2c1CCN(C(=O)CC1CCCC1)C2` [Compound 3103] reads 51 to 75%. The same measure, in the same setting: the result for `O=C(Cc1ccc(C(F)(F)F)c(F)c1)Nc1c(Cl)ccc2c1CCN(C(=O)COc1ccc(Cl)cc1)C2` [Compound 3104] reads 0 to 25%; that for `O=C(Cc1ccc(C(F)(F)F)c(F)c1)Nc1c(Cl)ccc2c1CCN(C(=O)Cc1ccc(Cl)cc1)C2` [Compound 3105], 26 to 50%; that for `O=C(Cc1ccc(C(F)(F)F)c(F)c1)Nc1c(Cl)ccc2c1CCN(C(=O)c1ccccc1C(F)(F)F)C2` [Compound 3106], 26 to 50%. For `Cc1ccc(F)c(C(=O)N2CCc3c(ccc(Cl)c3NC(=O)Cc3ccc(C(F)(F)F)c(F)c3)C2)c1Cl` [Compound 3107], the inhibition at 0.3 µM lay within 0 to 25%. Still for that read-out and setting: the result for `Cc1nn(-c2ccccc2)nc1C(=O)N1CCc2c(ccc(Cl)c2NC(=O)Cc2ccc(C(F)(F)F)c(F)c2)C1` [Compound 3108] reads 0 to 25%. On the same count and under the same terms, the result for `O=C(Cc1ccc(C(F)(F)F)c(F)c1)Nc1c(Cl)ccc2c1CCN(C(=O)C1COc3ccccc3O1)C2` (centres unmarked) [Compound 3110] reads 0 to 25%; that for `Cc1ccccc1C(=O)N1CCc2c(ccc(Cl)c2NC(=O)Cc2ccc(C(F)(F)F)c(F)c2)C1` [Compound 3112], 0 to 25%. With `O=C(Cc1ccc(C(F)(F)F)c(F)c1)Nc1c(Cl)ccc2c1CCN(C(=O)c1cc(F)ccc1F)C2` [Compound 3113], the inhibition at 0.3 µM was 0 to 25%. The same measure, in the same setting: the result for `O=C(Cc1ccc(C(F)(F)F)c(F)c1)Nc1c(Cl)ccc2c1CCN(C(=O)c1ccccc1F)C2` [Compound 3114] reads 0 to 25%; that for `O=C(Cc1ccc(C(F)(F)F)c(F)c1)Nc1c(Cl)ccc2c1CCN(C(=O)c1cccc(Cl)c1Cl)C2` [Compound 3115], 0 to 25%; that for `Cc1cc(C(=O)N2CCc3c(ccc(Cl)c3NC(=O)Cc3ccc(C(F)(F)F)c(F)c3)C2)no1` [Compound 3116], 0 to 25%.

For `O=C(Cc1ccc(C(F)(F)F)c(F)c1)Nc1c(Cl)ccc2c1CCN(C(=O)/C=C/c1ccccc1)C2` [Compound 3118], the inhibition at 0.3 µM fell in the range of 26 to 50%. As to `Cc1ccc(C(=O)N2CCc3c(ccc(Cl)c3NC(=O)Cc3ccc(C(F)(F)F)c(F)c3)C2)cc1` [Compound 3119], the inhibition at 0.3 µM fell in the range of 26 to 50%. The same measure, in the same setting: the result for `COc1ccccc1C(=O)N1CCc2c(ccc(Cl)c2NC(=O)Cc2ccc(C(F)(F)F)c(F)c2)C1` [Compound 3120] reads 0 to 25%; that for `O=C(Cc1ccc(C(F)(F)F)c(F)c1)Nc1c(Cl)ccc2c1CCN(C(=O)c1cccc3ccccc13)C2` [Compound 3121], 0 to 25%. Same read-out and setting: the result for `CC(=O)N1CCC(C(=O)N2CCc3c(ccc(Cl)c3NC(=O)Cc3ccc(C(F)(F)F)c(F)c3)C2)CC1` [Compound 3122] reads 0 to 25%. On the same count and under the same terms, the result for `CCCC(=O)N1CCc2c(ccc(Cl)c2NC(=O)Cc2ccc(C(F)(F)F)c(F)c2)C1` [Compound 3123] reads 0 to 25%. As for `CC(C)(C)c1ccc(C(=O)N2CCc3c(ccc(Cl)c3NC(=O)Cc3ccc(C(F)(F)F)c(F)c3)C2)cc1` [Compound 3124], the inhibition at 0.3 µM fell in the range of 0 to 25%.

For `O=C(Cc1ccc(C(F)(F)F)c(F)c1)Nc1c(Cl)ccc2c1CCN(C(=O)c1ccc3ccccc3n1)C2` [Compound 3125], the inhibition at 0.3 µM lay in the range of 26 to 50%.

Consider `O=C(Cc1ccc(C(F)(F)F)c(F)c1)Nc1c(Cl)ccc2c1CCN(C(=O)c1ccncc1)C2` [Compound 3126], for which the inhibition at 0.3 µM lay within 0 to 25%. Still for that read-out and setting: the result for `CC(=O)Nc1ccc(C(=O)N2CCc3c(ccc(Cl)c3NC(=O)Cc3ccc(C(F)(F)F)c(F)c3)C2)cc1` [Compound 3128] reads 0 to 25%; that for `COc1ccc(C(=O)N2CCc3c(ccc(Cl)c3NC(=O)Cc3ccc(C(F)(F)F)c(F)c3)C2)cc1OC` [Compound 3129], 0 to 25%; that for `O=C(Cc1ccc(C(F)(F)F)c(F)c1)Nc1c(Cl)ccc2c1CCN(C(=O)CCC1CCCCC1)C2` [Compound 3130], 51 to 75%.

Take `O=C(Cc1ccc(C(F)(F)F)c(F)c1)Nc1c(Cl)ccc2c1CCN(C(=O)c1cc(Cl)cc(Cl)c1)C2` [Compound 3131]: the inhibition at 0.3 µM was 0 to 25%. Turning to `O=C(Cc1ccc(C(F)(F)F)c(F)c1)Nc1c(Cl)ccc2c1CCN(C(=O)c1ccc(C(F)(F)F)nc1)C2` [Compound 3132], the inhibition at 0.3 µM fell in the range of 0 to 25%. For the molecule `O=C(Cc1ccc(C(F)(F)F)c(F)c1)Nc1c(Cl)ccc2c1CCN(C(=O)c1ccc(Oc3ccccc3)nc1)C2` [Compound 3133], the inhibition at 0.3 µM was 0 to 25%. On the same count and under the same terms, the result for `O=C(Cc1ccc(C(F)(F)F)c(F)c1)Nc1c(Cl)ccc2c1CCN(C(=O)c1nccs1)C2` [Compound 3134] reads 26 to 50%; that for `CC(Oc1ccccc1)C(=O)N1CCc2c(ccc(Cl)c2NC(=O)Cc2ccc(C(F)(F)F)c(F)c2)C1` (centres unmarked) [Compound 3135], 26 to 50%; that for `CC(=O)N1CCc2c(ccc(Cl)c2NC(=O)Cc2cccc(C(F)(F)F)c2F)C1` [Compound 3136], 0 to 25%. The same measure, in the same setting: the result for `O=C(Cc1cccc(C(F)(F)F)c1F)Nc1c(Cl)ccc2c1CCN(C(=O)c1ccccc1)C2` [Compound 3137] reads 0 to 25%.

Regarding `CCC(=O)N1CCc2c(ccc(Cl)c2NC(=O)Cc2cccc(C(F)(F)F)c2F)C1` [Compound 3138], the inhibition at 0.3 µM is 0 to 25%. Same read-out and setting: the result for `O=C(Cc1cccc(C(F)(F)F)c1F)Nc1c(Cl)ccc2c1CCN(C(=O)c1ccc(Cl)cc1)C2` [Compound 3139] reads 0 to 25%; that for `Cc1cccc(C(=O)N2CCc3c(ccc(Cl)c3NC(=O)Cc3cccc(C(F)(F)F)c3F)C2)c1` [Compound 3140], 0 to 25%.

For `COc1ccc(C(=O)N2CCc3c(ccc(Cl)c3NC(=O)Cc3cccc(C(F)(F)F)c3F)C2)cc1` [Compound 3141], the inhibition at 0.3 µM was 0 to 25%. Still for that read-out and setting: the result for `O=C(Cc1cccc(C(F)(F)F)c1F)Nc1c(Cl)ccc2c1CCN(C(=O)c1ccc(-c3ccccc3)cc1)C2` [Compound 3142] reads 0 to 25%; that for `O=C(Cc1cccc(C(F)(F)F)c1F)Nc1c(Cl)ccc2c1CCN(C(=O)c1cc(F)c(F)cc1F)C2` [Compound 3143], 0 to 25%. On the same count and under the same terms, the result for `O=C(Cc1cccc(C(F)(F)F)c1F)Nc1c(Cl)ccc2c1CCN(C(=O)C1CCCC1)C2` [Compound 3144] reads 0 to 25%.

As to `COCC(=O)N1CCc2c(ccc(Cl)c2NC(=O)Cc2cccc(C(F)(F)F)c2F)C1` [Compound 3145], the inhibition at 0.3 µM fell in the range of 51 to 75%. On the same count and under the same terms, the result for `CCCc1ccc(C(=O)N2CCc3c(ccc(Cl)c3NC(=O)Cc3cccc(C(F)(F)F)c3F)C2)cc1` [Compound 3146] reads 26 to 50%. The same measure, in the same setting: the result for `O=C(Cc1cccc(C(F)(F)F)c1F)Nc1c(Cl)ccc2c1CCN(C(=O)C1CCCCC1)C2` [Compound 3147] reads 0 to 25%; that for `O=C(Cc1cccc(C(F)(F)F)c1F)Nc1c(Cl)ccc2c1CCN(C(=O)c1ccc(Cl)c(Cl)c1)C2` [Compound 3148], 0 to 25%; that for `COc1cc(OC)cc(C(=O)N2CCc3c(ccc(Cl)c3NC(=O)Cc3cccc(C(F)(F)F)c3F)C2)c1` [Compound 3149], 26 to 50%. Still for that read-out and setting: the result for `CC(C)C(=O)N1CCc2c(ccc(Cl)c2NC(=O)Cc2cccc(C(F)(F)F)c2F)C1` [Compound 3150] reads 0 to 25%; that for `O=C(Cc1cccc(C(F)(F)F)c1F)Nc1c(Cl)ccc2c1CCN(C(=O)CCc1ccccc1)C2` [Compound 3151], 26 to 50%.

The same assay, now with this note: Homo sapiens; THP-1 cells, BzATP 250 uM, four parameter logistic fit.
In turn, `O=C(Cc1ccc(C(F)(F)F)c(F)c1)Nc1c(Cl)ccc2c1CCN(C(=O)CC1CCCC1)C2` [Compound 3103] had a half-maximal inhibitory concentration (IC50) of 172 nM.
